{"source": "paper PMC5441580", "about": "“GPR40 partial agonist MK-2305 lower fasting glucose in the Goto Kakizaki rat via suppression of endogenous glucose production” (PLoS ONE, 2017)", "key": {"[1]": {"molecular_target": "T1, Rat PPARδ (Rattus norvegicus, UniProt Q62879)", "T1 sequence (Q62879 1-440)": "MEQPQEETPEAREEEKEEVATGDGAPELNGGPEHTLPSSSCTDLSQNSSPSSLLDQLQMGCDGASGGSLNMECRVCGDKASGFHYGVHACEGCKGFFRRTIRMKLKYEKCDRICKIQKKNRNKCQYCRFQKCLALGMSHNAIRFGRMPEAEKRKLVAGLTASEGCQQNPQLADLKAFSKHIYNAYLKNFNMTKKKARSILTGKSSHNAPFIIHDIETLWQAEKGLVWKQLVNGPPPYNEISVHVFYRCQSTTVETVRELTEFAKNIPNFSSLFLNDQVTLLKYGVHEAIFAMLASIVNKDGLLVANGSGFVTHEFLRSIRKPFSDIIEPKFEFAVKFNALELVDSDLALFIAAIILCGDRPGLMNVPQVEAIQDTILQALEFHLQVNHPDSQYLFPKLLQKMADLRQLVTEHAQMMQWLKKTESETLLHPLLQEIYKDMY", "assay": "cell-based nuclear receptor profiling (Indigo Biosciences), PPARδ", "method": "Rat PPARα, PPARδ, and PPARγ activities were determined by Indigo Biosciences (State College, PA) cell-based nuclear receptor profiling service."}, "[2]": {"molecular_target": "T2, human GPR43 (FFAR2) (Homo sapiens, UniProt O15552)", "T2 construct": "expressed in transfected cells", "T2 sequence (O15552 1-330)": "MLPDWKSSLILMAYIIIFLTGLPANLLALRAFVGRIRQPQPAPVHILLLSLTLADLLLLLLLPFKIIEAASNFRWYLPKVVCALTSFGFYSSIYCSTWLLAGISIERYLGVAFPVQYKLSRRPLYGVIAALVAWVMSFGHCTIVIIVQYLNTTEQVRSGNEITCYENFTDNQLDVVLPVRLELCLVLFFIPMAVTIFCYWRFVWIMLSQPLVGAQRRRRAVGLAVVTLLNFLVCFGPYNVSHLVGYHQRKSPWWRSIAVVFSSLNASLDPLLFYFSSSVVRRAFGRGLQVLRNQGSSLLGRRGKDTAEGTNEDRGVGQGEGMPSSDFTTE", "assay": "cAMP (LANCE) functional assay, CHO cells expressing human GPR43", "type": "cell-based", "method": "CHO cells stably expressing human GPR41 or human GPR43 were harvested with non-enzymatic cell dissociation buffer and re-suspended in LANCE stimulation buffer (prepared as described by PE) at 0.25 million cells per ml (3.3 million cells per ml for GPR43) and 6 μl was then plated into each well of a 384-well Culturplate. Compounds were serially diluted in DMSO and then diluted further into stimulation buffer containing 2 μM forskolin (Sigma) at 2-times final concentration in the assay. 6 μl of the diluted compounds were then added to the assay plate and the plate incubated for 60 mins at room temperature. After the incubation, 12 μl of detection reagent (prepared as described by PE) was added to each well and the plates incubated one additional hour at room temperature. After the final incubation, the plates were read in a Perkin Elmer Envision reader with a method designed for Time-resolved fluorescence (TRF) assays (340 nm excitation, dual emission 615 and 655 nm). For each assay, a cAMP standard curve plate was also included. All fluorescent readings (using the 655/615 nm ratio) were converted to cAMP concentration using the cAMP standard curve and the percent activity at each concentration of test compound was determined using 0% activation (basal activity) determined in those wells containing DMSO alone, while 100% activity was determined in wells containing a concentration of agonist know to maximally activate the receptor."}}, "note": "Several values for one entry are separate records, joined by “and”; a condition that tells them apart may be missing. Identical values can stand only once."}
{"smiles": "O=C1NC(=O)C(C2CCOc3cc(Oc4ccc(C(F)(F)F)cc4Cl)ccc32)S1", "note": "(centres unmarked) [MK-2305]", "values": [{"measurement": "EC50", "setting": "[1]", "result": "> 10", "unit": "µM"}, {"measurement": "% Activation", "setting": "[1]; @ 10 μM", "result": "-0.1 @ 10 μM % and -0.08%"}, {"measurement": "% Effect", "setting": "[1]; Dose 0.309 nM", "result": -0.01, "unit": "%"}, {"measurement": "% Effect", "setting": "[1]; Dose 0.981 nM", "result": 0.01, "unit": "%"}, {"measurement": "% Effect", "setting": "[1]; Dose 3.11 nM", "result": -0.001, "unit": "%"}, {"measurement": "% Effect", "setting": "[1]; Dose 9.85 nM", "result": -0.01, "unit": "%"}, {"measurement": "% Effect", "setting": "[1]; Dose 31.2 nM", "result": -0.01, "unit": "%"}, {"measurement": "% Effect", "setting": "[1]; Dose 99 nM", "result": 0.01, "unit": "%"}, {"measurement": "% Effect", "setting": "[1]; Dose 314 nM", "result": 0.00, "unit": "%"}, {"measurement": "% Effect", "setting": "[1]; Dose 995 nM", "result": -0.02, "unit": "%"}, {"measurement": "% Effect", "setting": "[1]; Dose 3155 nM", "result": -0.04, "unit": "%"}, {"measurement": "% Effect", "setting": "[1]; Dose 10000 nM", "result": -0.08, "unit": "%"}, {"measurement": "% Activation", "setting": "[2]; @ 25 μM", "result": "61 @ 25 μM % and 61%"}, {"measurement": "% Effect", "setting": "[2]; Dose 1.267 nM", "result": -23, "unit": "%"}, {"measurement": "% Effect", "setting": "[2]; Dose 3.801 nM", "result": -37, "unit": "%"}, {"measurement": "% Effect", "setting": "[2]; Dose 34.208 nM", "result": -32, "unit": "%"}, {"measurement": "% Effect", "setting": "[2]; Dose 102.624 nM", "result": 25, "unit": "%"}, {"measurement": "% Effect", "setting": "[2]; Dose 307.872 nM", "result": -78, "unit": "%"}, {"measurement": "% Effect", "setting": "[2]; Dose 923.617 nM", "result": -34, "unit": "%"}, {"measurement": "% Effect", "setting": "[2]; Dose 2770.85 nM", "result": -39, "unit": "%"}, {"measurement": "% Effect", "setting": "[2]; Dose 8312.55 nM", "result": -23, "unit": "%"}, {"measurement": "% Effect", "setting": "[2]; Dose 24938 nM", "result": 61, "unit": "%"}, {"measurement": "EC50", "setting": "[2]; cAMP, CHO cells expressing human GPR43", "result": "> 25", "unit": "µM"}]}
